Laboratory results from patent publication US20130012709A1, “NOVEL INHIBITORS OF STEAROYL-CoA-DESATURASE-1 AND THEIR USES” (CENTRE NATIONAL DE LA RECHERCHE SCIENTIFIQUE, priority 2009, published 2013).

What was measured:
[1] = test system: C4-2 cells; assay: Flow cytometry analysis of cell cycle; format: cell-based, human; conditions: CaP cells (C4-2); with a decrease in the S phase
Experimental: (§1) Cells were then rinsed in PBS, pelleted at 400 g for 5 min and maintained on ice for 20 min before resuspension in a […] propidium iodide (Sigma) solution. Cells were kept overnight at 4° C. and the percentages of cells in G1, S and G2-M phases of the cell cycle were measured with a Coulter Epics XL™ flow cytometer (Becton Dickinson) using 488-nm laser excitation. For apoptosis experiment, MEFs were treated with the tested compound at 25 μM for 24 h, then rinced in PBS, pelleted at 400 g for 5 min and stained with annexinV-FITC (Roche Diagnostics, Meylan, France) for 15 min at 4° C. The percentage of annexin positive cells was immediately analysed using 488-nm laser excitation.

[2] = test system: LNCaP cells; assay: Flow cytometry analysis of cell cycle; format: cell-based, human; conditions: CaP cells (LNCaP); with a decrease in the S phase
Experimental: as §1

[3] = test system: C4-2 cells; assay: Phospho-kinase array and immunoblot; format: cell-based, human
Experimental: (§2) Protein extracts and sodium dodecyl sulfate (SDS)-polyacrylamide gel electrophoresis (PAGE), electrotransfer and immunoblotting were performed as previously described (34). The primary antibodies rabbit anti-AMPK, rabbit anti-phospho AMPK (Thr172), rabbit anti-Akt and rabbit anti-phospho Akt were purchased from Cell signalling Technology (Ozyme, Saint Quentin Yvelines, France). The primary antibody mouse anti-tubulineα was purchased from Lab Vision (Thermo Fisher Scientific, Microm France, Francheville, France). The primary antibodies rabbit anti-p44/p42 MAPK, rabbit anti-phospho p44/p42 MAPK (Thr202/Tyr204), mouse anti-GSK3α/β, and rabbit anti-phospho GSK3α/β were kindly provided by Dr Gilles Freiss. LNCaP and C4-2 cells treated with the tested compound at 25 μM were analyzed for the relative phosphorylation of 46 kinase phosphorylation sites using human phospho-kinase array kit (Proteome Profiler™) according to the manufacturers' recommendations (R&D systems Europe, Lille, France).

[4] = test system: LNCaP cells; assay: Phospho-kinase array and immunoblot; format: cell-based, human
Experimental: as §2

[5] = test system: β-catenin-Tcf4 complex in C4-2 cells; assay: TCF/LEF-1 reporter (pTOP-FLASH) luciferase assay; format: cell-based, human
Experimental: (§3) The transcriptional activity of the β-catenin-Tcf4 complex was analysed by performing transient transfections with 0.25 μg TCF/LEF-1 reporter (pTOP-FLASH) or control vector (pFOP-FLASH).
(§4) Luciferase activities in cell lysates were normalized relative to the β-galactosidase activity to correct for differences in transfection efficiency.

[6] = test system: β-catenin-Tcf4 complex in LNCaP cells; assay: TCF/LEF-1 reporter (pTOP-FLASH) luciferase assay; format: cell-based, human
Experimental: as §3, §4

[7] = test system: C4-2 cells; assay: Human WNT Signaling Pathway PCR Array; format: cell-based; conditions: C4-2, 25 μM
Experimental: C4-2 cells treated with the compound tested at 25 μM were analysed for the expression profiles of 84 genes related to Wnt-mediated signal transduction by using Human WNT Signaling Pathway PCR Array according to the manufacturers' recommendations (Tebu-Bio, Le Perray en Yvelines, France). The relative content of cDNA samples was normalized with the endogenous β2M, HPRT1, RPL13 and GAPDH reference genes, and the relative mRNA level was calculated according to the formula 2^−(ΔCt). Values are expressed as the fold change in relative mRNA level following treatment of cells with the tested compound at 25 μM, as compared to control.

[8] = test system: C4-2 tumor xenografts; assay: Subcutaneous xenograft, curative treatment; format: in vivo, mice
Experimental: (§5) Male athymic nude Mice (Foxn1 nu/nu) (Harlan, Grannat, France) were used at the age of 7 weeks (weight 25-30 g). All procedures were performed in compliance with the European Convention for the Protection of Vertebrate Animals Used for Experimentation (animal house agreement # B-34-172-27, authorization for animal experimentation #34.324). Experiments were done at least twice for each tested condition. Animals were sacrificed before they became compromised. Xenografts were established by subcutaneously injecting 2×10^6 LNCaP cells, 2×10^6 C4-2 cells or 5×10^5 MEFs SV40 in 100 μl of a Matrigel solution. For curative experiments, tumors were allowed to growth until they were measurable with a caliper. In each group, the mice were randomized and given SCD-1 inhibitor at 80 mg/kg in 100 μl of a labrafil-DMA-tween^80 solution (89:10:1) (treated group) or vehicle alone (control group), by daily intra-peritoneal (i.p.) injection 5 days of week. For preventive experiments, the mice were treated daily for 7 days before the day of xenograft. Tumor volume measurements were taken twice to three times a week and calculated according to the formula: length×width×height×0.5236. Data are expressed as the mean tumor volume or as fold of the start point tumor volume. For survival analysis, animals bearing pre-established C4-2 tumors were treated with BZ36 at 80 mg/kg or 160 mg/kg or with vehicle by daily i.p. injection 5 days of week. All mice were monitored for survival until tumor volume had reached 2000 mm^3 or until death. Analysis of survival was conducted by a log-rank test based on the Kaplan-Meier method. At euthanasia, tumors were excised and fixed in 4% formalin for immunohistological analyses.
(§6) Immunohistochemical analysis of SCD-1 expression was performed using high-density Tissue Microarray (TMA) slide (Accumax array) with 39 prostate adenocarcinoma spots from different patients (Gleason scores from 5 to 9) with corresponding normal tissues. Immunohistochemical analysis of pcna expression was performed on […] paraffin-embedded sections of LNCaP, C4-2 of Ras SV40 MEFs tumor xenografts. Briefly, after antigen retrieval, deparaffinized sections were blocked of Fc receptors with PBS containing 5% goat serum and then incubated with corresponding anti-SCD-1 mouse antibody, 1:50 (Abcam, Paris, France) or anti-pcna mouse antibody, 1:50 (Santa Cruz) in PBS-Tween 0.1%, overnight at 4° C. […] Sections were counterstained with Mayer's hematoxylin. […] Sections were mounted in mowiol and analysed rapidly.

[9] = test system: LNCaP tumor xenografts; assay: Subcutaneous xenograft, curative treatment; format: in vivo, mice
Experimental: as §5, §6

[10] = Toxicity in nude mice after daily i.p. injection; format: in vivo
Experimental: as §5, with “For survival analysis, animals bearing pre-established C4-2 tumors were treated with BZ36 at 80 mg/kg or 160 mg/kg or with vehicle by daily i.p. injection 5 days of week.” left out, “Analysis of survival was conducted by a log-rank test based on the Kaplan-Meier method. At euthanasia, tumors were excised and fixed in 4% formalin for immunohistological analyses.” left out

[11] = test system: ras SV40 MEFs tumors; assay: ras SV40 MEFs xenograft, curative and preventive; format: in vivo, mice
Experimental: as §5
Immunohistochemical analysis of SCD-1 expression was performed using high-density Tissue Microarray (TMA) slide (Accumax array) with 39 prostate adenocarcinoma spots from different patients (Gleason scores from 5 to 9) with corresponding normal tissues. […] Sections were mounted in mowiol and analysed rapidly.

In the case of `COc1ccc(Br)c(C(=O)N2CCN(c3ccc(C(=O)NCCCc4ccccc4)cn3)CC2)c1` [BZ36], the cell cycle distribution [1] is reported as “accumulation of cells in the G0/G1 phase”, the cell cycle distribution [2] is reported as “accumulation of cells in the G0/G1 phase” and the “phosphorylation of GSK3a/13” value ([3]; C4-2) is reported as “abrogated”. The “phosphorylation of AMPKcc” value ([3]; C4-2, 25 μM) was “increased”, the “Akt phosphorylation (5473/T308)” value ([3]; C4-2, 25 μM, vs non-treated cells) was “decrease” and the “phosphorylation of ERK1/2” value ([3]; C4-2, immunoblot) was “decreased phosphorylation”. For the same compound, the “phosphorylation of MEK1/2 (S218/5222, S222/S226)” value ([3]; C4-2, vs control cells) was “Significant decreases”, the “phosphorylation of GSK3a/13” value [4] was “abrogated” and the “phosphorylation of AMPKcc” value ([4]; 25 μM) was “increased”. For the same compound, the “Akt phosphorylation (5473/T308)” value ([4]; 25 μM, vs non-treated cells) was “decrease”, the “phosphorylation of ERK1/2” value ([4]; immunoblot) was “decreased phosphorylation” and the “activity of a β-cat reporter” value [5] was “decreased activity”. The “activity of a β-cat reporter” value [6] was “decreased activity”, the “expression of genes in the β-cat pathway (frizzled family, cyclin D1, D2, D3, myc, c-jun, Wnt family members)” value [7] was “decreased expression” and the “mice with tumor volume increased more than 4-fold” value ([8]; C4-2, 80 mg/kg, 42% of vehicle-treated mice) was 12%. The “xenografted mice with tumor regression” value ([8]; C4-2, 80 mg/kg, no regression in control mice) was 19%, the “tumor volume and tumor growth rate” value ([8]; C4-2 xenograft, 80 mg/kg i.p., vs vehicle) was “significantly reduced” and the “decrease of proliferative tumor cells (PCNA immunostaining)” value (“decrease of proliferative tumor cells” below) ([8]; C4-2 xenografts, 80 mg/kg, vs control animals) was 41%. The “tumor volume and tumor growth rate” value ([9]; LNCaP xenograft, 80 mg/kg i.p., vs vehicle) was “significantly reduced”, the “decrease of proliferative tumor cells” value ([9]; LNCaP xenografts, 80 mg/kg, vs control animals) was 50% and the “mice with tumor volume increased more than 4-fold” value ([9]; LNCaP, 80 mg/kg, 42% of vehicle-treated mice) was 18%. For the same compound, the “xenografted mice with tumor regression” value ([9]; LNCaP, 80 mg/kg, no regression in control mice) was 27%, the “histological examination of liver and skin” value [10] was “absence of toxicity” and the “weight loss or other toxicity” value [10] was “no significant weight loss or other toxicity”. The “ras SV40 MEFs tumors growth” value ([11]; curative, from day 2, maintained along 12 days, vs vehicle) was “significantly prevented”, the “mice with tumors five days after cells were grafted” value ([11]; pre-treatment one week prior to graft, almost all vehicle treated mice developed tumors) was 50% and the “decrease of proliferative tumor cells” value ([11]; ras SV40 MEFs xenografts, vs vehicle-treated mice) was 61%.
